# Where “and” joins values, the source holds several entries; their conditions need not be identical. Identical values can stand only once. Entries after “also recorded” stand apart in the source; their conditions may differ.
# Columns and labels:
# [1] = tested on: SK-RC-52 xenografts; assay: Biodistribution of [64Cu]XYIMSR-06; type: in vivo, mice
# Method: (§1) Cell Lines and Mouse Models. Animal experiments were performed in accordance with protocols approved by the Johns Hopkins Animal Care and Use Committee (ACUC). Six-week-old female NOD/SCID mice were purchased from the Animal Resource Core of the Sidney Kimmel Comprehensive Cancer Center of Johns Hopkins and were subcutaneously injected in the lower left flank or upper right flank with 1×10^6 SK-RC-52 cells in RPMI 1640 GlutaMAX™ media (Life Technologies, Frederick, Md.) supplemented with 1% fetal bovine serum (FBS). Mice were monitored for tumor size and used for SPECT/CT imaging when the size of the tumor reached 100 mm^3.
# Biodistribution of [^64Cu]XYIMSR-06. Mice bearing SK-RC-52 xenografts within the upper right flank were injected intravenously with 740 kBq (20 μCi) of [^64Cu]XYIMSR-06 in 200 μL of PBS. For in vivo competition (binding specificity) studies, tumor-bearing mice were injected with 740 kBq (20 μCi) of [^64Cu]XYIMSR-06 and 200 nmole of 1 in 200 μL of PBS concurrently. At specific times after injection (1 h, 4 h, 8 h and 24 h), mice (n=5) were sacrificed by cervical dislocation with blood immediately collected by cardiac puncture. Heart, lungs, pancreas, spleen, fat, brain, muscle, small intestines, liver, stomach, kidney, urinary bladder, and tumor were also collected. Each organ was weighed and the tissue radioactivity was measured with an automated gamma counter (1282 Compugamma CS, Pharmacia/LKBNuclear, Inc., Mt. Waverly, Vic. Australia). The percentage of injected dose per gram of tissue (% ID/g) was calculated by comparison with samples of a standard dilution of the initial dose. All measurements were corrected for radioactive decay. Data were expressed as mean±standard deviation (SD). Prism software (GraphPAD, San Diego, Calif.) was used to determine statistical significance. Statistical significance was calculated using a paired t test. P-values […] were considered significant.
# [2] = tested on: CAIX-expressing SK-RC-52 tumors; assay: PET/CT imaging of [64Cu]XYIMSR-06; type: in vivo, mice; details: 22.2 MBq (600 μCi) via tail vein
# Method: as §1
# PET/CT imaging of [^64Cu]XYIMSR-06. Mice harboring subcutaneous SK-RC-52 tumors within the upper right flank were injected intravenously (tail vein) with 22.2 MBq (600 μCi) of [^64Cu]XYIMSR-06 in 250 μL of PBS (pH=7.0). Anesthesia was then induced with 3% isoflurane and maintained with 2% isoflurane. Physiologic temperature was maintained with an external light source while the mouse was on the gantry. Whole body, 2-bed PET/CT imaging was performed using the SuperArgus small animal PET/CT scanner (Sedecal, Madrid, Spain), […] a 250-700 keV energy window. PET acquisition times were: 5 min/bed position (1 h post-injection of [^64Cu]XYIMSR-06); 10 min/bed position (4 and 8 h) and 20 min/bed position (24 h). […]
# [3] = 8 h + block (200 nmole of 1 co-injected)
# [4] = 24 h + block (200 nmole of 1 co-injected)
smiles,measurement,setting,value
CC(CCC(=O)N[C@@H](CC(=O)N[C@@H](CC(=O)N[C@@H](CCCCn1cc(CCCC(=O)Nc2nnc(S(N)(=O)=O)s2)nn1)C(=O)NCCOCCOCCNC(=S)Nc1ccc(CC2CN(CC(=O)[O-])CCN(CC(=O)[O-])CCN2CC(=O)O)cc1)C(=O)O)C(=O)O)(c1ccc(O)cc1)c1ccc(O)cc1.[64Cu+2] (stereo partly shown) [[^64Cu]XYIMSR-06],Biodistribution: Bladder,[1]; 1 h post-injection,11.12 ± 6.33 % ID/g
same,Biodistribution: Blood,[1]; 1 h post-injection,0.66 ± 0.05 % ID/g
same,Biodistribution: Brain,[1]; 1 h post-injection,1.46 ± 2.23 % ID/g
same,Biodistribution: Fat,[1]; 1 h post-injection,0.80 ± 0.17 % ID/g
same,Biodistribution: Heart,[1]; 1 h post-injection,3.41 ± 0.79 % ID/g
same,Biodistribution: Kidney (kid),[1]; 1 h post-injection,33.65 ± 3.91 % ID/g
same,Biodistribution: Liver,[1]; 1 h post-injection,3.25 ± 0.97 % ID/g
same,Biodistribution: Lung,[1]; 1 h post-injection,25.52 ± 3.35 % ID/g
same,Biodistribution: Muscle (mm),[1]; 1 h post-injection,1.28 ± 0.27 % ID/g
same,Biodistribution: Pancreas,[1]; 1 h post-injection,2.94 ± 0.24 % ID/g
same,Biodistribution: Sm. intestine,[1]; 1 h post-injection,7.35 ± 0.78 % ID/g
same,Biodistribution: Spleen,[1]; 1 h post-injection,0.36 ± 0.08 % ID/g
same,Biodistribution: Stomach,[1]; 1 h post-injection,14.80 ± 2.27 % ID/g
same,Biodistribution: Tumor,[1]; 1 h post-injection,14.5 % ID/g and 14.47 ± 2.69 % ID/g
same,Tumor/kid (kidney) ratio,[1]; 1 h post-injection,0.4 ± 0.1
same,Tumor/mm (muscle) ratio,[1]; 1 h post-injection,10.8 ± 3.7
same,Biodistribution: Bladder,[1]; 4 h post-injection,17.05 ± 8.86 % ID/g
same,Biodistribution: Blood,[1]; 4 h post-injection,0.33 ± 0.06 % ID/g
same,Biodistribution: Brain,[1]; 4 h post-injection,0.29 ± 0.06 % ID/g
same,Biodistribution: Fat,[1]; 4 h post-injection,0.52 ± 0.29 % ID/g
same,Biodistribution: Heart,[1]; 4 h post-injection,1.78 ± 0.33 % ID/g
same,Biodistribution: Kidney (kid),[1]; 4 h post-injection,19.99 ± 2.88 % ID/g
same,Biodistribution: Liver,[1]; 4 h post-injection,2.18 ± 0.57 % ID/g
same,Biodistribution: Lung,[1]; 4 h post-injection,12.03 ± 1.61 % ID/g
same,Biodistribution: Muscle (mm),[1]; 4 h post-injection,0.70 ± 0.18 % ID/g
same,Biodistribution: Pancreas,[1]; 4 h post-injection,1.36 ± 0.19 % ID/g
same,Biodistribution: Sm. intestine,[1]; 4 h post-injection,4.15 ± 0.69 % ID/g
same,Biodistribution: Spleen,[1]; 4 h post-injection,0.24 ± 0.04 % ID/g
same,Biodistribution: Stomach,[1]; 4 h post-injection,8.19 ± 0.97 % ID/g
same,Biodistribution: Tumor,[1]; 4 h post-injection,19.3 % ID/g and 19.31 ± 4.51 % ID/g
same,Tumor/Blood ratio,[1]; 4 h post-injection,57.7 ± 9.3
same,Tumor/kid (kidney) ratio,[1]; 4 h post-injection,1.0 ± 0.1
same,Tumor/mm (muscle) ratio,[1]; 4 h post-injection,29.4 ± 9.9
same,Biodistribution: Bladder,[1]; [3],1.45 ± 1.53 % ID/g
same,Biodistribution: Blood,[1]; [3],0.08 ± 0.01 % ID/g
same,Biodistribution: Brain,[1]; [3],0.04 ± 0.01 % ID/g
same,Biodistribution: Fat,[1]; [3],0.05 ± 0.01 % ID/g
same,Biodistribution: Heart,[1]; [3],0.16 ± 0.03 % ID/g
same,Biodistribution: Kidney (kid),[1]; [3],1.82 ± 0.39 % ID/g
same,Biodistribution: Liver,[1]; [3],0.55 ± 0.08 % ID/g
same,Biodistribution: Lung,[1]; [3],0.77 ± 0.14 % ID/g
same,Biodistribution: Muscle (mm),[1]; [3],0.05 ± 0.02 % ID/g
same,Biodistribution: Pancreas,[1]; [3],0.14 ± 0.03 % ID/g
same,Biodistribution: Sm. intestine,[1]; [3],0.38 ± 0.06 % ID/g
same,Biodistribution: Spleen,[1]; [3],0.14 ± 0.02 % ID/g
same,Biodistribution: Stomach,[1]; [3],0.69 ± 0.18 % ID/g
same,Biodistribution: Tumor,[1]; [3],2.39 ± 0.24 % ID/g
same,Tumor/Blood ratio,[1]; [3],32.0 ± 3.8
same,Tumor/kid (kidney) ratio,[1]; [3],1.3 ± 10.2
same,Tumor/mm (muscle) ratio,[1]; [3],53.0 ± 12.6
same,Biodistribution: Bladder,[1]; 8 h post-injection,7.43 ± 7.72 % ID/g
same,Biodistribution: Blood,[1]; 8 h post-injection,0.13 ± 0.02 % ID/g
same,Biodistribution: Brain,[1]; 8 h post-injection,0.24 ± 0.06 % ID/g
same,Biodistribution: Fat,[1]; 8 h post-injection,0.28 ± 0.27 % ID/g
same,Biodistribution: Heart,[1]; 8 h post-injection,0.65 ± 0.10 % ID/g
same,Biodistribution: Kidney (kid),[1]; 8 h post-injection,8.14 ± 1.15 % ID/g
same,Biodistribution: Liver,[1]; 8 h post-injection,0.99 ± 0.22 % ID/g
same,Biodistribution: Lung,[1]; 8 h post-injection,4.64 ± 0.58 % ID/g
same,Biodistribution: Muscle (mm),[1]; 8 h post-injection,0.21 ± 0.05 % ID/g
same,Biodistribution: Pancreas,[1]; 8 h post-injection,0.47 ± 0.21 % ID/g
same,Biodistribution: Sm. intestine,[1]; 8 h post-injection,1.98 ± 0.14 % ID/g
same,Biodistribution: Spleen,[1]; 8 h post-injection,0.18 ± 0.02 % ID/g
same,Biodistribution: Stomach,[1]; 8 h post-injection,4.02 ± 0.53 % ID/g
same,Biodistribution: Tumor,[1]; 8 h post-injection,16.74 ± 1.58 % ID/g
same,Tumor/Blood ratio,[1]; 8 h post-injection,129.6±18.8
same,Tumor/kid (kidney) ratio,[1]; 8 h post-injection,2.1±0.26
same,Tumor/mm (muscle) ratio,[1]; 8 h post-injection,84.3±21.0
same,all other tumor-to-organ ratios tested,[1]; 24 h,≥ 10.0
same,tumor-to-lung ratio,[1]; 24 h,4.9
same,Biodistribution: Bladder,[1]; [4],0.45 ± 0.50 % ID/g
same,Biodistribution: Blood,[1]; [4],0.01 ± 0.08 % ID/g
same,Biodistribution: Brain,[1]; [4],0.02 ± 0.01 % ID/g
same,Biodistribution: Fat,[1]; [4],0.01 ± 0.01 % ID/g
same,Biodistribution: Heart,[1]; [4],0.08 ± 0.01 % ID/g
same,Biodistribution: Kidney (kid),[1]; [4],0.48 ± 0.09 % ID/g
same,Biodistribution: Liver,[1]; [4],0.42 ± 0.04 % ID/g
same,Biodistribution: Lung,[1]; [4],0.29 ± 0.05 % ID/g
same,Biodistribution: Muscle (mm),[1]; [4],0.04 ± 0.06 % ID/g
same,Biodistribution: Pancreas,[1]; [4],0.07 ± 0.02 % ID/g
same,Biodistribution: Sm. intestine,[1]; [4],0.19 ± 0.05 % ID/g
same,Biodistribution: Spleen,[1]; [4],0.11 ± 0.04 % ID/g
same,Biodistribution: Stomach,[1]; [4],0.29 ± 0.04 % ID/g
same,Biodistribution: Tumor,[1]; [4],1.20 ± 0.47 % ID/g
same,Tumor/Blood ratio,[1]; [4],27.1 ± 26.7
same,Tumor/kid (kidney) ratio,[1]; [4],2.4 ± 0.4
same,Tumor/mm (muscle) ratio,[1]; [4],49.0 ± 28.7
same,Biodistribution: Bladder,[1]; 24 h post-injection,0.34 ± 0.09 % ID/g
same,Biodistribution: Blood,[1]; 24 h post-injection,0.00 ± 0.06 % ID/g
same,Biodistribution: Brain,[1]; 24 h post-injection,0.13 ± 0.02 % ID/g
same,Biodistribution: Fat,[1]; 24 h post-injection,0.03 ± 0.01 % ID/g
same,Biodistribution: Heart,[1]; 24 h post-injection,0.12 ± 0.03 % ID/g
same,Biodistribution: Kidney (kid),[1]; 24 h post-injection,0.90 ± 0.12 % ID/g
same,Biodistribution: Liver,[1]; 24 h post-injection,0.38 ± 0.03 % ID/g
same,Biodistribution: Lung,[1]; 24 h post-injection,1.27 ± 0.38 % ID/g
same,Biodistribution: Muscle (mm),[1]; 24 h post-injection,0.02 ± 0.01 % ID/g
same,Biodistribution: Pancreas,[1]; 24 h post-injection,0.21 ± 0.29 % ID/g
same,Biodistribution: Sm. intestine,[1]; 24 h post-injection,0.47 ± 0.03 % ID/g
same,Biodistribution: Spleen,[1]; 24 h post-injection,0.09 ± 0.01 % ID/g
same,Biodistribution: Stomach,[1]; 24 h post-injection,0.65 ± 0.04 % ID/g
same,Biodistribution: Tumor,[1]; 24 h post-injection,6.2 % ID/g and 6.23 ± 1.41 % ID/g
same,Tumor/Blood ratio,[1]; 24 h post-injection,142.6 ± 115.8
same,Tumor/kid (kidney) ratio,[1]; 24 h post-injection,7.1 and 7.1 ± 2.5
same,Tumor/mm (muscle) ratio,[1]; 24 h post-injection,261.3 ± 47.3
same,tumor uptake on co-injection of 200 nmole of 1,[1]; co-injection of 200 nmole of 1,blocked tumor uptake
same,radiotracer uptake within liver (in vivo stability of NOTA-64Cu chelation),[1]; within 24 h,no significant radiotracer uptake within liver
same,PET/CT tumor imaging finding,[2],"radiotracer uptake in tumor as early as 1 h post-injection; also recorded: At 1 h, tumor could be observed distinctly"
